The text below walks through data of US10562912B2 (C&C Research Laboratories, priority 2013, dated 2020).

What all share (format): cell-based
One assay concerns DU-145. Briefly: Cell growth inhibition assay, prostate cancer cell line DU-145. To be noted: Homo sapiens, DU-145 prostate cancer cell line. The protocol: (§1) The inhibitory effects of the compounds of the present invention against the growth of cancer cells were evaluated as shown below. The cancer cell lines including stomach cancer cell line (AGS), breast cancer cell lines (MDA-MB-231, MDA-MB-468, and BT-549), prostate cancer cell lines (LNCaP and DU-145), colon cancer cell line (HCT116), ovarian cancer cell line (SW626), liver cancer cell line (Hep3B), kidney cancer cell line (ACHN), lung cancer cell line (NCI-H23) and blood cancer cell lines (HEL92.1.7 and U266) were cultured under the protocol provided by each supplier. A medium supplemented with 10 ng/mL of IL-6 was used for LNCaP, a prostate cancer cell line, when treated with a drug. Each type of cells to be used in experiments were sub-cultured in a 96-well plate by counting the exact number of cells using Tali™ Image-based Cytometer (Life Technologies). In a 96-well plate, AGS, HCT116, and DU-145 were employed with 3,000 cells/well; NCI-H23, SW626, Hep3B, ACHN, BT-549, MDA-MB-231, HEL92.1.7, and U266 were employed with 5,000 cells/well; and LNCaP and MDA-MB-468 were employed with 10,000 cells/well. The cells were treated with the compounds listed in Examples which were diluted in various concentrations. Upon completion of the compounds treatment, AGS, HCT116, SW626, DU145, NCI-H23, Hep3B, ACHN, BT-549, LNCaP, HEL92.1.7, and U266 cells were cultured at 37° C. under 5% CO2 for from 72 to 96 hours, and MDA-MB-231 and MDA-MB-468 cells were cultured at 37° C. in air for from 72 to 96 hours. Subsequently, the cells were observed under microscope and drug precipitation and particular findings were investigated and recorded. And then, the 96-well plate was placed at room temperature for 30 minutes, added with 20 μL/well of CellTiter-Glo solution (Cat No. G7573, Promega) and shaken for 10 minutes, followed by being subjected to the measurement using PHERAstar™ microplate reader (BMG LABTECH) according to the supplier's general luminometer protocol. Wells where only culture liquid added without cell plating were used as a negative control, whereas wells where culture liquid containing 0.1% DMSO instead of the compounds listed in Examples were used as a positive control.

Another assay relates to LNCaP. The assay is described as follows: Cell growth inhibition assay, prostate cancer cell line LNCaP (medium with 10 ng/mL IL-6). To be noted: Homo sapiens, medium supplemented with 10 ng/mL of IL-6, 10,000 cells/well. The method, then:
as §1

The target in the next assay is T1, STAT3 (Homo sapiens, UniProt P40763).
T1 construct: plasmid pSTAT3-TA-luc), which contains a stably operating STAT3 promoter; endogenous in cells
The assay is described as follows: STAT3 reporter gene assay (luciferase), LNCaP stable cell line (pSTAT3-TA-luc), IL-6 stimulation. The protocol:
1-1) Experiment on the Inhibition of STAT3 Activity
A human prostate cancer cell line (LNCaP stable cell line; plasmid pSTAT3-TA-luc), which contains a stably operating STAT3 promoter, was cultured in RPMI1640 medium (Cat No. 11875, Life Technologies) containing 10% fetal bovine serum (FBS) (Cat No. SH30396, Thermo Scientific) and 150 μg/mL G-418 solution (Cat No. 04 727 894 001, Roche). The reporter gene assay using LNCaP stable cell line was performed in RPMI1640 medium containing 3% DCC-FBS without G-418 solution. LNCaP stable cells were plated in two (2) white 96-well plates with 30,000 cells/50 μL in each well. The cells were cultured at 37° C., under 5% CO2 for 24 hours, and then treated with the compounds listed in Examples which were diluted in various concentrations. Subsequently, IL-6 was added to each well with a final concentration of 10 ng/mL. Upon completion of the treatment with the compounds and IL-6, the cells were cultured at 37° C., under 5% CO2 for from 24 to 48 hours. The plates were observed under microscope and drug precipitation and particular findings were investigated and recorded.
The luciferase assay and the cell viability assay were performed respectively with one of the two plates. For the luciferase assay, the liquid media in the 96-well plate was removed, and then, 20 μL of passive cell lysis buffer was added to each well. After shaking the plate for 30 minutes, luciferase activities of each well were measured in a PHERAstar™ microplate reader (BMG LABTECH) using a luciferase assay system (Cat No. E1501, Promega). For the cell viability assay, the 96-well plate was placed at room temperature for 30 minutes, added with 20 μL/well of CellTiter-Glo solution (Cat No. G7573, Promega), and shaken for 10 minutes in order to measure cytotoxicity caused by the compounds listed in Examples with a PHERAstar™ microplate reader (BMG LABTECH). Wells without 0.1% DMSO and stimulation were used as a negative control and wells with 0.1% DMSO and stimulation were used as a positive control.

SMILES strings stand for the structures.

T1 sequence (P40763 whole entry): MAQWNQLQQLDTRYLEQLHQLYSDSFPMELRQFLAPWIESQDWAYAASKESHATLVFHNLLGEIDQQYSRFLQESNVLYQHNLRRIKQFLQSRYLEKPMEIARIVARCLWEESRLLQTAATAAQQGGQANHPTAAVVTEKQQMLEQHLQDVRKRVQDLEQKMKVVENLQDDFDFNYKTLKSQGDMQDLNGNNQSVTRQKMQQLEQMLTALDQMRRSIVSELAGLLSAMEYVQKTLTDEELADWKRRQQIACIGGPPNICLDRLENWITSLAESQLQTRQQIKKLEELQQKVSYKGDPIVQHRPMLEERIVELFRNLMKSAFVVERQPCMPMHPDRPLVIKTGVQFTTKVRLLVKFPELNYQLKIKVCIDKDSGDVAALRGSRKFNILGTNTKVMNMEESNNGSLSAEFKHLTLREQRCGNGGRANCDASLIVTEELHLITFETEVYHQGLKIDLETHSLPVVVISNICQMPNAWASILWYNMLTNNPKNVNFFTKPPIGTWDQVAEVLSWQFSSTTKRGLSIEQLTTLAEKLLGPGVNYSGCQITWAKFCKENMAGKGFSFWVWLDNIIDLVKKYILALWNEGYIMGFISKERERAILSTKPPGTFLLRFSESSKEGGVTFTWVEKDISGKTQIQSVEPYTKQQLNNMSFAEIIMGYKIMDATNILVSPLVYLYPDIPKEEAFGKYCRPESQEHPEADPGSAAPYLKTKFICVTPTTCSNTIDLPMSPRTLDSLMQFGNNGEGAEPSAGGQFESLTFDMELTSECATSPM

By IC50 is commonly meant the concentration that inhibits the measured activity by half. A low value points to greater potency. Take `C=CCOc1cc(OC(F)(F)F)cc(C(C)(C)c2cc(Cl)cc(NC(=O)c3cc4cc(NS(C)(=O)=O)ccc4s3)c2)c1` [Example 78, N-(3-(2-(3-(allyloxy)-5-(trifluoromethoxy)phenyl)propan-2-yl)-5-chlorophenyl)-5-(methylsulfonamido)benzo[b]thiophene-2-carboxamide]: the IC50 in the assay on DU-145 came to 0.009 µM; in the assay on LNCaP, 0.038 µM; on STAT3, 0.017 µM.
For `CC(C)(c1cc(Cl)cc(NC(=O)c2cc3cc(NS(C)(=O)=O)ccc3s2)c1)c1cc(OC2CC2)cc(OC(F)(F)F)c1` [Example 79, N-(3-chloro-5-(2-(3-cyclopropoxy-5-(trifluoromethoxy)phenyl)propan-2-yl)phenyl)-5-(methylsulfonamido)benzo[b]thiophene-2-carboxamide], in that order: 0.008 µM, 0.039 µM and 0.014 µM.
For `COc1cc(OC(F)(F)F)cc(C(C)(C)c2cc(Br)cc(NC(=O)c3cc4cc(NS(C)(=O)=O)ncc4[nH]3)c2)c1` [Example 99, N-(3-bromo-5-(2-(3-methoxy-5-(trifluoromethoxy)phenyl)propan-2-yl)phenyl)-5-(methylsulfonamido)-1H-pyrrolo[2,3-c]pyridine-2-carboxamide 2,2,2-trifluoroacetate], in that order: 0.8 µM, 1.5 µM and 0.22 µM.
Regarding `CC(C)Oc1cc(OC(F)(F)F)cc(C(C)(C)c2cc(Cl)cc(NC(=O)c3cc4ccc(NS(C)(=O)=O)nc4[nH]3)c2)c1` [Example 100, N-(3-chloro-5-(2-(3-isopropoxy-5-(trifluoromethoxy)phenyl)propan-2-yl)phenyl)-6-(methylsulfonamido)-1H-pyrrolo[2,3-b]pyridine-2-carboxamide], the 50% inhibitory concentration (IC50) in the assay on DU-145 is 0.33 µM; in the assay with LNCaP, above 10 µM; against STAT3, 0.042 µM.
`CC(C)Oc1cc(OC(F)(F)F)cc(C(C)(C)c2cc(Cl)cc(NC(=O)c3cc4cnc(NS(C)(=O)=O)cc4[nH]3)c2)c1` [Example 101, N-(3-chloro-5-(2-(3-isopropoxy-5-(trifluoromethoxy)phenyl)propan-2-yl)phenyl)-6-(methylsulfonamido)-1H-pyrrolo[3,2-c]pyridine-2-carboxamide]: the IC50 was 0.44 µM in the assay on DU-145, 1.1 µM in the assay with LNCaP and 0.28 µM at STAT3.
Regarding `CC(C)Oc1cc(OC(F)(F)F)cc(C(C)(C)c2cc(Cl)cc(NC(=O)c3cc4c(s3)CCN(NS(C)(=O)=O)C4)c2)c1` [Example 104, N-(3-chloro-5-(2-(3-isopropoxy-5-(trifluoromethoxy)phenyl)propan-2-yl)phenyl)-5-(methylsulfonamido)-4,5,6,7-tetrahydrothieno[3,2-c]pyridine-2-carboxamide], the IC50 in the assay with DU-145 is 0.58 µM; with LNCaP, 0.42 µM; at STAT3 it was 0.224 µM.
`CC(C)Oc1cc(OC(F)(F)F)cc(C(C)(C)c2cc(Cl)cc(NC(=O)c3cc4cc(NS(C)(=O)=O)c(Cl)cc4s3)c2)c1` [Example 105, 6-chloro-N-(3-chloro-5-(2-(3-isopropoxy-5-(trifluoromethoxy)phenyl)propan-2-yl)phenyl)-5-(methylsulfonamido)benzo[b]thiophene-2-carboxamide]: the 50% inhibitory concentration (IC50) turned out to be 0.001 µM with DU-145, 0.002 µM with LNCaP and 0.005 µM against STAT3.
For `COc1cccc(C(C)(C)c2cc(Cl)cc(NC(=O)c3cc4cc(NS(C)(=O)=O)ccc4s3)c2)c1` [Example 106, N-(3-chloro-5-(2-(3-methoxyphenyl)propan-2-yl)phenyl)-5-(methylsulfonamido)benzo[b]thiophene-2-carboxamide], in that order: 0.031 µM, 0.11 µM and 0.52 µM.
For `CC#Cc1cc(OC(F)(F)F)cc(C(C)(C)c2cc(Cl)cc(NC(=O)c3cc4cc(NS(C)(=O)=O)ccc4s3)c2)c1` [Example 114, N-(3-chloro-5-(2-(3-(prop-1-yn-1-yl)-5-(trifluoromethoxy)phenyl)propan-2-yl)phenyl)-5-(methylsulfonamido)benzo[b]thiophene-2-carboxamide], in that order: 0.014 µM, 0.061 µM and 0.02 µM.
For `CC(C)(c1cccc(Cn2ccnc2)c1)c1cc(Br)cc(NC(=O)c2cc3cc(NS(C)(=O)=O)ccc3s2)c1` [Example 120, N-(3-(2-(3-((1H-imidazol-1-yl)methyl)phenyl)propan-2-yl)-5-bromophenyl)-5-(methylsulfonamido)benzo[b]thiophene-2-carboxamide] the same measures were 2.2 µM, 3.6 µM and 0.66 µM.
In the case of `CC(C)Oc1cc(CN2CCNCC2)cc(C(C)(C)c2cc(Br)cc(NC(=O)c3cc4cc(NS(C)(=O)=O)ccc4s3)c2)c1` [Example 124, N-(3-bromo-5-(2-(3-isopropoxy-5-(piperazin-1-ylmethyl)phenyl)propan-2-yl)phenyl)-5-(methylsulfonamido)benzo[b]thiophene-2-carboxamide], the 50% inhibitory concentration (IC50) with DU-145 is 2.1 µM; in the assay on LNCaP, 6.5 µM; against STAT3, 4 µM.
With `CC(C)Oc1cc(CN2CCCC2)cc(C(C)(C)c2cc(Cl)cc(NC(=O)c3cc4cc(NS(C)(=O)=O)ccc4s3)c2)c1` [Example 125, N-(3-chloro-5-(2-(3-isopropoxy-5-(pyrrolidin-1-ylmethyl)phenyl)propan-2-yl)phenyl)-5-(methylsulfonamido)benzo[b]thiophene-2-carboxamide], the IC50 in the assay with DU-145 is 0.46 µM; with LNCaP, 2.1 µM; against STAT3, 0.89 µM.
Turning to `CC(C)Oc1cc(CN2CCOCC2)cc(C(C)(C)c2cc(Cl)cc(NC(=O)c3cc4cc(NS(C)(=O)=O)ccc4s3)c2)c1` [Example 126, N-(3-chloro-5-(2-(3-isopropoxy-5-(morpholinomethyl)phenyl)propan-2-yl)phenyl)-5-(methylsulfonamido)benzo[b]thiophene-2-carboxamide], the half-inhibitory concentration (IC50) in the assay on DU-145 came to 0.11 µM; with LNCaP, 0.11 µM; against STAT3, 0.1 µM.
On to `CC(C)Oc1cc(CN2CCN(S(C)(=O)=O)CC2)cc(C(C)(C)c2cc(Cl)cc(NC(=O)c3cc4cc(NS(C)(=O)=O)ccc4s3)c2)c1` [Example 128, N-(3-chloro-5-(2-(3-isopropoxy-5-((4-(methylsulfonyl)piperazin-1-yl)methyl)phenyl)propan-2-yl)phenyl)-5-(methylsulfonamido)benzo[b]thiophene-2-carboxamide], for which the half-inhibitory concentration (IC50) in the assay with DU-145 was found to be 0.15 µM; in the assay with LNCaP, 0.41 µM; on STAT3, 0.27 µM.
For `CC(C)Oc1cc(CN2CCN(S(=O)(=O)N(C)C)CC2)cc(C(C)(C)c2cc(Cl)cc(NC(=O)c3cc4cc(NS(C)(=O)=O)ccc4s3)c2)c1` [Example 131, N-(3-chloro-5-(2-(3-((4-(N,N-dimethylsulfamoyl)piperazin-1-yl)methyl)-5-isopropoxyphenyl)propan-2-yl)phenyl)-5-(methylsulfonamido)benzo[b]thiophene-2-carboxamide], in that order: 0.1 µM, 0.26 µM and 0.085 µM.
